Our source for the inhibition in vivo, UI and IC50 values is ChEMBL document CHEMBL3045768, “Potential anti-inflammatory activity and ulcerogenicity study of some novel pyrimido[4,5:4,5]pyrimido[1,6-a]azepine derivatives” (Med Chem Res, 2012).

Data set [1] deals with Rattus norvegicus. Description: Anti-inflammatory activity inRattus norvegicus albino (rat) assessed as inhibition of carrageenan-induced paw edema at 20 umol/kg, ip administered 1 hr before challenge measured after 3 hr. Format: functional. On the technique in general: Carrageenan injected into the paw causes an acute inflammation.
The test system of data set [2] is Rattus norvegicus. The data set is described as follows: Anti-inflammatory activity inRattus norvegicus albino (rat) assessed as inhibition of carrageenan-induced paw edema at 20 umol/kg, ip administered 1 hr before challenge measured after 2 hr. The format is functional.
The test system of data set [3] is Rattus norvegicus. The data set is described as follows: Anti-inflammatory activity inRattus norvegicus albino (rat) assessed as inhibition of carrageenan-induced paw edema at 20 umol/kg, ip administered 1 hr before challenge measured after 1 hr. The format is functional.
The test system of data set [4] is Rattus norvegicus. Description: Toxicity inRattus norvegicus albino (rat) assessed as ulcerogenicity at 20 umol/kg, po qd for 3 days. Format: organism-based. Particulars: in vivo, 72 h.
Data set [5] deals with Rattus norvegicus. The data set is described as follows: Anti-inflammatory activity inRattus norvegicus albino (rat) assessed as inhibition of carrageenan-induced paw edema at 20 umol/kg, ip administered 1 hr before challenge measured after 3 hr relative to diclofenac-sodium. The format is functional.
The subject of data set [6] is Rattus norvegicus. Description: Anti-inflammatory activity inRattus norvegicus albino (rat) assessed as inhibition of carrageenan-induced paw edema at 12 umol/kg, ip administered 1 hr before challenge measured after 3 hr. Format: functional.
For data set [7], the system named is Rattus norvegicus. Description: Anti-inflammatory activity inRattus norvegicus albino (rat) assessed as inhibition of carrageenan-induced paw edema at 24 umol/kg, ip administered 1 hr before challenge measured after 3 hr. The format is functional.
The test system of data set [8] is Rattus norvegicus. The data set is described as follows: Anti-inflammatory activity in ip dosedRattus norvegicus albino (rat) assessed as inhibition of carrageenan-induced paw edema administered 1 hr before challenge measured after 3 hr. Format: functional, organism-based.
Data set [9] deals with Rattus norvegicus. The data set is described as follows: Anti-inflammatory activity inRattus norvegicus albino (rat) assessed as inhibition of carrageenan-induced paw edema at 18 umol/kg, ip administered 1 hr before challenge measured after 3 hr. The format is functional.

Consider `N#CC1=C(NC(=O)c2ccccc2O)N(c2ccccc2)C(=O)N2CCCCC(N3CCCC3)C12` (stereo not drawn), for which the inhibition in vivo (commonly the percentage by which the read-out fell short of the control) at 20 µmol/kg in data set [1] came out at 65.4%; in data set [2] it was 53.8%; in [3] it was 44.7%; in data set [5], 74.7%. In addition, in [4], the UI is 3.4.
For `N#CC1=C(NC(=O)Cc2ccccc2Nc2c(Cl)cccc2Cl)N(c2ccccc2)C(=O)N2CCCCC(N3CCCC3)C12` (stereo not drawn) the same measures were 67.2%, 48.5%, 31.9%, 76.7% and 4.1.
Take `Nc1ncnc2c1C1C(N3CCCC3)CCCCN1C(=O)N2c1ccccc1` (stereo not drawn): the inhibition in vivo at 20 µmol/kg in data set [1] was determined as 33.7%; in data set [2], 22.8%; in data set [3], 17.6%; in [5], 38.5%.
`O=C1N(c2ccccc2)c2ncnc(N3CCOCC3)c2C2C(N3CCCC3)CCCCN12` (stereo not drawn): the inhibition in vivo at 20 µmol/kg in data set [1] stood at 33.8%; in [2], 21.2%; in data set [3], 17.7%; in data set [5], 38.6%.
Turning to `O=C1N(c2ccccc2)c2ncnc(N3CCCCC3)c2C2C(N3CCCC3)CCCCN12` (stereo not drawn), the inhibition in vivo at 20 µmol/kg in data set [1] is 27.9%; in data set [2], 17.4%; in data set [3], 10.3%; in data set [5], 31.9%.
For `O=C1N(c2ccccc2)c2ncnc(N3CCCC3)c2C2C(N3CCCC3)CCCCN12` (stereo not drawn), the inhibition in vivo at 20 µmol/kg came out at 27.3% in data set [1], 14.8% in data set [2], 9.5% in data set [3] and 31.1% in [5].
For `O=C1N(c2ccccc2)c2ncn(CN3CCOCC3)c(=O)c2C2C(N3CCCC3)CCCCN12` (stereo not drawn), the inhibition in vivo at 20 µmol/kg was 30.1% in data set [1], 18.5% in data set [2], 13.1% in [3] and 34.3% in [5].
For `O=C1N(c2ccccc2)c2ncn(CN3CCCCC3)c(=O)c2C2C(N3CCCC3)CCCCN12` (stereo not drawn) the same measures were 29.3%, 16.4%, 11.9% and 33.4%.
`O=C1N(c2ccccc2)c2ncn(CN3CCCC3)c(=O)c2C2C(N3CCCC3)CCCCN12` (stereo not drawn): the inhibition in vivo at 20 µmol/kg came to 32.6% in data set [1], 22.3% in [2], 16.2% in [3] and 37.2% in [5].
As to `O=C1N(c2ccccc2)c2nc[nH]c(=O)c2C2C(N3CCCC3)CCCCN12` (stereo not drawn), the inhibition in vivo at 20 µmol/kg in data set [1] was 33.1%; in [2] it was 26.8%; in data set [3], 11%; in [5] it was 37.8%.
`O=C(Cc1ccccc1Nc1c(Cl)cccc1Cl)SCc1nc2c(c(=O)[nH]1)C1C(N3CCCC3)CCCCN1C(=O)N2c1ccccc1` (stereo not drawn): the inhibition in vivo at 20 µmol/kg came out at 53.1% in [1], 45.8% in data set [2], 33.1% in [3] and 61.3% in data set [5]. For the same compound, the UI in [4] was found to be 2.6.
In the case of `O=C(O)CSCc1nc2c(c(=O)[nH]1)C1C(N3CCCC3)CCCCN1C(=O)N2c1ccccc1` (stereo not drawn), the inhibition in vivo at 20 µmol/kg in data set [1] turned out to be 85.6%; in data set [2] it was 73.2%; in data set [3], 66.4%; in data set [5] it was 97.7%. For the same compound, in data set [6], the inhibition in vivo at 12 µmol/kg came out at 51.2%. In addition, the inhibition in vivo at 24 µmol/kg in [7] is 89.6%. Moreover, the UI in data set [4] was found to be 2.7. Moreover, in [8], the IC50 is 11.73 µmol/kg. For the same compound, the inhibition in vivo at 18 µmol/kg in data set [9] was 69.3%.
With `O=C(SCc1nc2c(c(=O)[nH]1)C1C(N3CCCC3)CCCCN1C(=O)N2c1ccccc1)c1ccccc1O` (stereo not drawn), the inhibition in vivo at 20 µmol/kg was 49.7% in data set [1], 36.9% in data set [2], 29.8% in data set [3] and 56.4% in data set [5]. The UI in data set [4] is 3.4.
The matching figures for `O=C1N(c2ccccc2)c2nc(CCN3CCOCC3)[nH]c(=O)c2C2C(N3CCCC3)CCCCN12` (stereo not drawn): 52.5%, 52.2%, 38.8%, 59.9% and 3.4.
For the compound `O=C1N(c2ccccc2)c2nc(CCN3CCCCC3)[nH]c(=O)c2C2C(N3CCCC3)CCCCN12` (stereo not drawn), the inhibition in vivo at 20 µmol/kg was 41.4% in data set [1], 35.7% in data set [2], 26.8% in data set [3] and 47.3% in [5].
For `O=C1N(c2ccccc2)c2nc(CCN3CCCC3)[nH]c(=O)c2C2C(N3CCCC3)CCCCN12` (stereo not drawn), the inhibition in vivo at 20 µmol/kg in data set [1] was determined as 44.3%; in [2], 32.5%; in data set [3] it was 20.5%; in data set [5], 50.6%.
`O=C1N(c2ccccc2)c2nc(CN3CCOCC3)[nH]c(=O)c2C2C(N3CCCC3)CCCCN12` (stereo not drawn): the inhibition in vivo at 20 µmol/kg in data set [1] was found to be 62.4%; in [2], 57.5%; in data set [3] it was 51.9%; in data set [5], 71.2%. In addition, in [4], the UI turned out to be 4.3.
For the compound `O=C1N(c2ccccc2)c2nc(CN3CCCCC3)[nH]c(=O)c2C2C(N3CCCC3)CCCCN12` (stereo not drawn), the inhibition in vivo at 20 µmol/kg came out at 42.4% in [1], 37.2% in data set [2], 28% in data set [3] and 48.4% in data set [5].
In the case of `O=C1N(c2ccccc2)c2nc(CN3CCCC3)[nH]c(=O)c2C2C(N3CCCC3)CCCCN12` (stereo not drawn), the inhibition in vivo at 20 µmol/kg in [1] came out at 48.7%; in [2] it was 42.2%; in data set [3], 36.2%; in [5] it was 53.6%.
The matching figures for `O=C1N(c2ccccc2)c2nc(-c3ccccc3O)[nH]c(=O)c2C2C(N3CCCC3)CCCCN12` (stereo not drawn): 37.2%, 27.9%, 21.9% and 42.5%.
With `O=C1N(c2ccccc2)c2nc(Cc3ccccc3Nc3c(Cl)cccc3Cl)[nH]c(=O)c2C2C(N3CCCC3)CCCCN12` (stereo not drawn), the inhibition in vivo at 20 µmol/kg stood at 45.3% in [1], 35.2% in [2], 29.7% in data set [3] and 51.7% in data set [5].
In the case of `O=C([O-])Cc1ccccc1Nc1c(Cl)cccc1Cl.[Na+]` [DICLOFENAC SODIUM], the results for the inhibition in vivo at 20 µmol/kg in [1], in data set [2] and in data set [3] were 87.6%, 83.5% and 68.6%, respectively. The inhibition in vivo at 12 µmol/kg in data set [6] came out at 59.5%. In addition, the inhibition in vivo at 24 µmol/kg in data set [7] worked out at 88.2%. Further, the UI in [4] is on record as 9. Besides, in data set [8], the IC50 turned out to be 7.26 µmol/kg. For the same compound, the inhibition in vivo at 18 µmol/kg in [9] stood at 79.3%.
